Measurements reported in ChEMBL document CHEMBL1201862, “PubChem BioAssay data set” (2004).
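Dose response: 5 concentrations. Exposure: 48 h. Format: 96-well plates. Endpoint: linear interpolation; highest concentration if not reached. Abbreviation: GI50, concentration required for 50% inhibition of growth.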 Calls of active or inactive are those of the source. Rule as the data show it: active = GI50 up to about 1.1 µM and inactive = higher.

Assays:
Assay in all cases: NCI anticancer screen, dose series, 48 h
SF-268 = test system: SF-268
HL-60 = test system: HL-60
OVCAR-8 = test system: OVCAR-8
SK-MEL-28 = test system: SK-MEL-28
A549 = test system: A549
DLD-1 = test system: DLD-1
EKVX = test system: EKVX
SK-OV-3 = test system: SK-OV-3
MOLT-4 = test system: MOLT-4
SNB-75 = test system: SNB-75
M14 = test system: M14
A498 = test system: A498
Hs-578T = test system: Hs-578T
Malme-3M = test system: Malme-3M
BT-549 = test system: BT-549
TK-10 = test system: TK-10
UACC-62 = test system: UACC-62
NCI-H460 = test system: NCI-H460
PC-3 = test system: PC-3
HOP-62 = test system: HOP-62
DMS-114 = test system: DMS-114
MCF7 = test system: MCF7
UACC-257 = test system: UACC-257
T47D = test system: T47D
NCI-H226 = test system: NCI-H226
HOP-18 = test system: HOP-18
NCI-H522 = test system: NCI-H522
CAKI-1 = test system: CAKI-1
OVCAR-5 = test system: OVCAR-5
U-251 = test system: U-251
MDA-MB-435 = test system: MDA-MB-435
SNB-19 = test system: SNB-19
HOP-92 = test system: HOP-92
SF-539 = test system: SF-539
RXF 631 = test system: RXF 631
K562 = test system: K562
UO-31 = test system: UO-31
OVCAR-3 = test system: OVCAR-3
SK-MEL-2 = test system: SK-MEL-2
SNB-78 = test system: SNB-78
DMS-273 = test system: DMS-273
LXFL 529 = test system: LXFL 529
SR = test system: SR
MDA-MB-231 = test system: MDA-MB-231
RPMI-8226 = test system: RPMI-8226
HCC 2998 = test system: HCC 2998
HCT-116 = test system: HCT-116
HT-29 = test system: HT-29
DU-145 = test system: DU-145
KM-20L2 = test system: KM-20L2
KM12 = test system: KM12
SK-MEL-5 = test system: SK-MEL-5
IGROV-1 = test system: IGROV-1
NCI-H23 = test system: NCI-H23
XF498 = test system: XF498
786-0 = test system: 786-0
SN12C = test system: SN12C
SW-620 = test system: SW-620
OVCAR-4 = test system: OVCAR-4
ACHN = test system: ACHN
SF-295 = test system: SF-295
HCT-15 = test system: HCT-15
CCRF-CEM = test system: CCRF-CEM
COLO 205 = test system: COLO 205
LOX IMVI = test system: LOX IMVI
MDA-N = test system: MDA-N
M19-MEL = test system: M19-MEL

O=C1c2c(O)cccc2C(C(=O)CCCC(=O)C2c3cccc(O)c3C(=O)c3c(O)cccc32)c2cccc(O)c21
GI50 (SF-268): 248 nM (active)
GI50 (HL-60): 82.4 nM (active)
GI50 (OVCAR-8): 492 nM (active)
GI50 (SK-MEL-28): 538 nM (active)
GI50 (A549): 393 nM (active)
GI50 (DLD-1): 388 nM (active)
GI50 (EKVX): 608 nM (active)
GI50 (SK-OV-3): 353 nM (active)
GI50 (MOLT-4): 966 nM (active)
GI50 (SNB-75): 448 nM (active)
GI50 (M14): 368 nM (active)
GI50 (A498): 957 nM (active)
GI50 (Hs-578T): 66.5 nM (active)
GI50 (Malme-3M): 789 nM (active)
GI50 (BT-549): 524 nM (active)
GI50 (TK-10): 547 nM (active)
GI50 (UACC-62): 327 nM (active)
GI50 (NCI-H460): 80.3 nM (active)
GI50 (PC-3): 78.7 nM (active)
GI50 (HOP-62): 612 nM (active)
GI50 (DMS-114): 116 nM (active)
GI50 (MCF7): 598 nM (active)
GI50 (UACC-257): 191 nM (active)
GI50 (T47D): 279 nM (active)
GI50 (NCI-H226): 456 nM (active)
GI50 (HOP-18): 378 nM (active)
GI50 (NCI-H522): 158 nM (active)
GI50 (CAKI-1): 1270 nM (inactive)
GI50 (OVCAR-5): 469 nM (active)
GI50 (U-251): 212 nM (active)
GI50 (MDA-MB-435): 746 nM (active)
GI50 (SNB-19): 290 nM (active)
GI50 (HOP-92): 217 nM (active)
GI50 (SF-539): 179 nM (active)
GI50 (RXF 631): 578 nM (active)
GI50 (K562): 110 nM (active)
GI50 (UO-31): 417 nM (active)
GI50 (OVCAR-3): 158 nM (active)
GI50 (SK-MEL-2): 322 nM (active)
GI50 (SNB-78): 213 nM (active)
GI50 (DMS-273): 437 nM (active)
GI50 (LXFL 529): 139 nM (active)
GI50 (SR): 321 nM (active)
GI50 (MDA-MB-231): 82.2 nM (active)
GI50 (RPMI-8226): 67.9 nM (active)
GI50 (HCC 2998): 278 nM (active)
GI50 (HCT-116): 220 nM (active)
GI50 (HT-29): 746 nM (active)
GI50 (DU-145): 519 nM (active)
GI50 (KM-20L2): 1190 nM (inactive)
GI50 (KM12): 242 nM (active)
GI50 (SK-MEL-5): 259 nM (active)
GI50 (IGROV-1): 415 nM (active)
GI50 (NCI-H23): 270 nM (active)
GI50 (XF498): 75.2 nM (active)
GI50 (786-0): 2730 nM (inactive)
GI50 (SN12C): 643 nM (active)
GI50 (SW-620): 244 nM (active)
GI50 (OVCAR-4): 86.7 nM (active)
GI50 (ACHN): 378 nM (active)
GI50 (SF-295): 243 nM (active)
GI50 (HCT-15): 259 nM
GI50 (CCRF-CEM): 202 nM (active)
GI50 (COLO 205): 340 nM (active)
GI50 (LOX IMVI): 194 nM (active)
GI50 (MDA-N): 442 nM (active)
GI50 (M19-MEL): 151 nM (active)
